In PubChem BioAssay (NCI):
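Growth conditions: 96-well plates. Treatment: test compound, 48 hours, 5 concentrations. Analysis: linear interpolation between bracketing concentrations; unreached endpoints set to highest concentration. The concentration for full growth arrest is given as TGI.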

Legend:
Assay in all cases: growth of human tumour cells (NCI), 48 h
T-47D breast = system: T-47D breast
SF-268 CNS = system: SF-268 CNS
HCC-2998 colon = system: HCC-2998 colon
DU-145 prostate = system: DU-145 prostate
NCI-H460 lung = system: NCI-H460 lung
NCI-H522 lung = system: NCI-H522 lung
SK-MEL-28 melanoma = system: SK-MEL-28 melanoma
MDA-MB-231 breast = system: MDA-MB-231 breast
UACC-257 melanoma = system: UACC-257 melanoma
HOP-92 NSCLC = system: HOP-92 NSCLC

Structure (SMILES)	TGI (T-47D breast) [µM]	TGI (SF-268 CNS) [µM]	TGI (HCC-2998 colon) [µM]	TGI (DU-145 prostate) [µM]	TGI (NCI-H460 lung) [µM]	TGI (NCI-H522 lung) [µM]	TGI (SK-MEL-28 melanoma) [µM]	TGI (MDA-MB-231 breast) [µM]	TGI (UACC-257 melanoma) [µM]	TGI (HOP-92 NSCLC) [µM]
S=C1C(=Nc2ccccc2)N(c2ccccc2)/C(=N\c2ccccn2)N1c1ccccc1	41.5	31.4	27.1	35	27	3.59	30.5	31.6	27.3	25.7
O=C1OC2(C(F)(F)F)Oc3ccccc3CN2C12CCCCC2 (stereo not given)	> 100	> 100	> 100	> 100	66.4	83.3	> 100	59.5	71.4	61.7
Cc1cc(=O)n2nc(CSc3nnc(N)s3)sc2n1	> 100	> 100	> 100	> 100	> 100	> 100	> 100	> 100	> 100	> 100
NS(=O)(=O)c1ccc(Nc2c3ccccc3nc3c(C(=O)NCCCN(CCO)CCO)cccc23)cc1	44.2	45.5	54.8	> 100	36.9	44.1	41.9	> 100	67.6	> 100
CCCC(CC)c1c(O)c(O)c(C(CC)CCC)c(C(CC)CCC)c1C(CC)CCC (stereo not given)	> 10	> 10	> 10	> 10	> 10	> 10	> 10	> 10	> 10	> 10
CCOC(=O)C1=C(C)C(C(=O)OC)/C(=C/c2cccc3cccnc23)C1=O (stereo not given)	> 10	> 10	> 10	> 10	> 10	> 10	> 10	> 10	> 10	> 10
O=c1[nH]c2cc3cccnc3c(Cl)c2nc1C(F)(F)F	88.1	> 100	> 100	> 100	> 100	> 100	> 100	> 100	> 100	60.5
C=CCN(c1cc(OCc2ccccc2)c(NC(C)=O)cc1[N+](=O)[O-])S(C)(=O)=O	> 100	51.3	> 100	> 100	> 100	> 100	> 100	29.5	> 100	41.2
COc1ccc(C(=C(I)c2ccccc2)c2ccc(OC)cc2)cc1	> 100	> 100	> 100	> 100	> 100	> 100	> 100	> 100	> 100	> 100
O=C1C=C2CO[C@H]3OC[C@H](O)[C@@H]1[C@@H]23	67.3	> 100	> 100	> 100	> 100	33.1	> 100	> 100	86.4	> 100
Cc1ccc(C)c(COCCOCn2cc(Br)c(N)nc2=O)c1	> 100	> 100	> 100	> 100	> 100	> 100	> 100	> 100	> 100	> 100
C=C1C(=O)O[C@H]2C/C(C)=C/CC/C(C)=C/CC[C@@](C)(O)[C@@H](I)C[C@@H]12	32.1	31.9	25.6	22.2	27.2	14.4	30	26.9	25.5	9.82
Cc1cc2ccccc2n1CC(=O)N1CCCC1	> 100	> 100	> 100	> 100	> 100	> 100	> 100	> 100	> 100	> 100
Cc1cc(N=Cc2c(CO)cnc(C)c2O)c(N=Cc2c(CO)cnc(C)c2O)cc1C.[Zn]	> 100	> 100	> 100	> 100	> 100	> 100	> 100	> 100	> 100	> 100
COCN1CCN=c2c1c1c3c(c4ccccc4n23)CCC1	> 100	> 100	> 100	> 100	> 100	> 100	> 100	> 100	> 100	> 100
O=c1c2ccccc2n2nnc3ccc(NCCCNCCNCCCNc4ccc5nnn6c7ccccc7c(=O)c4c56)c1c32	> 50	> 26.6	6.51	> 50	15.8	9.84	> 39.3	7.37	> 50	> 50

Structure (SMILES)	TGI (T-47D breast) [µM]	TGI (SF-268 CNS) [µM]	TGI (HCC-2998 colon) [µM]	TGI (DU-145 prostate) [µM]	TGI (NCI-H460 lung) [µM]	TGI (NCI-H522 lung) [µM]	TGI (SK-MEL-28 melanoma) [µM]	TGI (MDA-MB-231 breast) [µM]	TGI (UACC-257 melanoma) [µM]	TGI (HOP-92 NSCLC) [µM]
S=c1nc2[nH]c3ccc(Br)cc3c2n[nH]1	> 100	> 100	> 100	> 100	> 100	> 100	> 100	> 100	> 100	> 100
CC(NC1=NCCO1)c1cccc([N+](=O)[O-])c1 (stereo not given)	> 100	> 100	> 100	> 100	> 100	> 100	> 100	> 100	> 100	> 100
CN(C)CCOC(=O)c1ccc(N)cc1	> 100	> 100	31.4	> 100	> 100	68.1	67.5	41.1	54	49.5
O=C(OCCN1CCCCC1)C(c1ccccc1)C1(O)CCSCC1 (stereo not given)	> 100	> 100	> 100	> 100	> 100	> 100	> 100	> 100	> 100	> 100
C=CC(C)(C)N[C@@H](C(=O)N1CCC[C@H]1c1nc(-c2nc(C(=O)OCC=C(C)C)c(C)o2)c(C)o1)C(C)C	73.4	46.9	36	34	51.1	35.6	38.2	51.3	38.4	35
COc1cc(/C=C2\N=C(c3ccccc3)N(/N=C3\C(=O)Nc4ccccc43)C2=O)cc(OC)c1OC	> 100	> 100	> 100	> 100	> 100	> 100	> 100	> 100	> 100	> 100
OCC(O)C1OC2CC1Nc1ccccc1N2 (stereo not given)	> 100	> 100	> 100	> 100	> 100	> 100	> 100	> 100	> 100	> 100
Cc1cn(CC2=NCCCN2)c(=O)[nH]c1=O	> 100	> 100	> 100	> 100	> 100	> 100	> 100	> 100	> 100	> 100
O=C1CSC2=NCC3(NN12)c1ccccc1-c1ccccc13	> 10	> 10	> 10	> 10	> 10	> 10	> 10	> 10	> 10	> 10
O=C(/C=C/c1ccc(-c2ccccc2)cc1)NCc1ccc(C(=O)NCCc2c[nH]c3ccccc23)cc1	> 100	> 100	> 100	> 100	> 100	> 100	> 100	42.1	> 100	> 100
COc1ccc(/C=C(\C(=C/c2ccc(OC)cc2)[N+](=O)[O-])[N+](=O)[O-])cc1	35.7	20.8	30.9	24.6	12.2	8.8	6.76	5.56	17.1	10
COc1ccc2c(c1)nc1n2C(N)=Nc2ccccc2S1	> 92.3	> 100	> 100	> 100	> 100	> 100	> 100	> 100	> 100	63.5
N#CC(C#N)=Cc1c(O)ccc2ccccc12	46.4	33.1	33.1	27.8	36.7	29.2	28.9	30.4	32.6	23.4
O=C1CCC2(CC1CCSc1ccccc1)OCCO2 (stereo not given)	> 100	> 100	> 100	> 100	> 100	> 100	> 100	> 100	> 100	> 100
COc1ccc(-c2nc(-c3cc4ccccc4oc3=O)cs2)cc1	> 100	> 100	> 100	> 100	> 100	> 100	> 100	53.8	> 100	> 100
